Data reported in PubChem BioAssay (NCI).
Where “and” joins values, the source holds several entries; their conditions need not be identical. Equal entries are not always repeated.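 All cell lines were grown in 96-well plates and treated with compound for 48 hours. At the GI50, growth is halved. Definition used: TGI = concentration required for complete inhibition of growth.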

Columns and labels:
Experiment in all cases: NCI-60 cell line screen, 48 h
ACHN renal = tested on: ACHN renal
CCRF-CEM leukemia = tested on: CCRF-CEM leukemia
HCT-116 colon = tested on: HCT-116 colon
NCI-H226 lung = tested on: NCI-H226 lung
OVCAR-3 ovarian = tested on: OVCAR-3 ovarian
RPMI-8226 leukemia = tested on: RPMI-8226 leukemia
SNB-75 CNS = tested on: SNB-75 CNS
UACC-257 melanoma = tested on: UACC-257 melanoma
K-562 leukemia = tested on: K-562 leukemia
SK-MEL-5 melanoma = tested on: SK-MEL-5 melanoma

COc1ccc2c(O)c(/C=C3\N=Nc4ccccc43)oc2c1C[C@@H]1CCNC[C@H]1F
GI50 (ACHN renal): 1.74 µM | TGI (ACHN renal): 3.41 µM | GI50 (CCRF-CEM leukemia): 2.33 µM | TGI (CCRF-CEM leukemia): 6.1 µM | GI50 (HCT-116 colon): 1.65 µM | TGI (HCT-116 colon): 3.17 µM | GI50 (NCI-H226 lung): 13 µM | TGI (NCI-H226 lung): 31.9 µM | GI50 (OVCAR-3 ovarian): 1.99 µM | TGI (OVCAR-3 ovarian): 3.98 µM | GI50 (RPMI-8226 leukemia): 7.05 µM | TGI (RPMI-8226 leukemia): 30.5 µM | GI50 (SNB-75 CNS): 8.46 µM | TGI (SNB-75 CNS): 21.5 µM | GI50 (UACC-257 melanoma): 16.2 µM | TGI (UACC-257 melanoma): 32 µM

COc1cc2c(c(OC)c1OC)-c1ccc(OC)c(=O)cc1[C@@H](NC(C)=O)CC2
TGI (ACHN renal): > 100 µM | GI50 (HCT-116 colon): < 0.01 µM and 0.0625 µM | TGI (RPMI-8226 leukemia): > 100 µM and 217 µM

CC(=O)Nc1c(I)c(NC(C)=O)c(I)c(C(=O)O)c1I
GI50 (ACHN renal): > 100 µM | TGI (ACHN renal): > 100 µM | GI50 (CCRF-CEM leukemia): > 100 µM | TGI (CCRF-CEM leukemia): > 100 µM | GI50 (HCT-116 colon): > 100 µM | TGI (HCT-116 colon): > 100 µM | GI50 (K-562 leukemia): > 100 µM | TGI (K-562 leukemia): > 100 µM | GI50 (NCI-H226 lung): > 100 µM | TGI (NCI-H226 lung): > 100 µM | GI50 (OVCAR-3 ovarian): > 100 µM | TGI (OVCAR-3 ovarian): > 100 µM | GI50 (RPMI-8226 leukemia): > 100 µM | TGI (RPMI-8226 leukemia): > 100 µM | GI50 (SK-MEL-5 melanoma): > 100 µM | TGI (SK-MEL-5 melanoma): > 100 µM | GI50 (UACC-257 melanoma): > 100 µM | TGI (UACC-257 melanoma): > 100 µM

O=C(c1ccccc1)C(c1ccccc1)C1(O)C(=O)Nc2ccc([N+](=O)[O-])cc21 (stereo unspecified)
TGI (ACHN renal): > 100 µM | TGI (CCRF-CEM leukemia): > 100 µM | TGI (HCT-116 colon): > 100 µM | TGI (K-562 leukemia): > 100 µM | TGI (NCI-H226 lung): > 100 µM | TGI (RPMI-8226 leukemia): > 100 µM | TGI (SK-MEL-5 melanoma): 57.7 µM | TGI (SNB-75 CNS): > 100 µM

N#CCCCCCOCCOCCOCCOCCOCCCCCC#N
TGI (ACHN renal): > 100 µM | TGI (CCRF-CEM leukemia): > 100 µM | TGI (HCT-116 colon): > 100 µM | TGI (K-562 leukemia): > 100 µM | TGI (NCI-H226 lung): > 100 µM | TGI (OVCAR-3 ovarian): > 100 µM | TGI (SK-MEL-5 melanoma): > 100 µM | TGI (SNB-75 CNS): > 100 µM | TGI (UACC-257 melanoma): > 100 µM

COc1ccc(NC(=O)CC/C(CC(=O)c2ccco2)=N/NC(N)=S)cc1
TGI (ACHN renal): > 100 µM | TGI (CCRF-CEM leukemia): > 100 µM | TGI (HCT-116 colon): > 100 µM | TGI (K-562 leukemia): > 100 µM | TGI (NCI-H226 lung): > 100 µM | TGI (OVCAR-3 ovarian): > 100 µM | TGI (RPMI-8226 leukemia): > 100 µM | TGI (UACC-257 melanoma): > 100 µM

CCCCCCn1c(-c2ccc(C(=O)O/N=C(\N)c3ccc4ccccc4c3)cc2)nc(-c2ccccc2)c1-c1ccccc1
GI50 (CCRF-CEM leukemia): 1.51 µM | TGI (CCRF-CEM leukemia): > 100 µM | GI50 (HCT-116 colon): 4.2 µM | TGI (HCT-116 colon): > 100 µM | GI50 (K-562 leukemia): 2.42 µM | TGI (K-562 leukemia): > 100 µM | GI50 (NCI-H226 lung): 27.3 µM | TGI (NCI-H226 lung): > 100 µM | GI50 (OVCAR-3 ovarian): > 100 µM | TGI (OVCAR-3 ovarian): > 100 µM | GI50 (SK-MEL-5 melanoma): > 100 µM | TGI (SK-MEL-5 melanoma): > 100 µM | GI50 (SNB-75 CNS): 2.18 µM | TGI (SNB-75 CNS): 20.1 µM | GI50 (UACC-257 melanoma): > 100 µM | TGI (UACC-257 melanoma): > 100 µM

COc1ccc2cc(C(=O)/C=C/c3ccc(N(C)C)cc3)ccc2c1
GI50 (ACHN renal): 81.4 µM | TGI (ACHN renal): > 100 µM | GI50 (HCT-116 colon): > 100 µM | TGI (HCT-116 colon): > 100 µM | GI50 (K-562 leukemia): > 100 µM | TGI (K-562 leukemia): > 100 µM | GI50 (OVCAR-3 ovarian): > 100 µM | TGI (OVCAR-3 ovarian): > 100 µM | GI50 (RPMI-8226 leukemia): > 100 µM | TGI (RPMI-8226 leukemia): > 100 µM | GI50 (SK-MEL-5 melanoma): 36.9 µM | TGI (SK-MEL-5 melanoma): 72.8 µM | GI50 (SNB-75 CNS): > 100 µM | TGI (SNB-75 CNS): > 100 µM | GI50 (UACC-257 melanoma): 36.7 µM | TGI (UACC-257 melanoma): > 100 µM

CCCCNC(=O)C1C(=O)N(CCCC)C(=O)/C1=N\N (stereo unspecified)
TGI (ACHN renal): > 100 µM | TGI (HCT-116 colon): > 100 µM | TGI (K-562 leukemia): > 100 µM | TGI (NCI-H226 lung): > 100 µM | TGI (OVCAR-3 ovarian): > 100 µM | TGI (RPMI-8226 leukemia): > 100 µM | TGI (SK-MEL-5 melanoma): > 100 µM | TGI (SNB-75 CNS): > 100 µM | TGI (UACC-257 melanoma): > 100 µM

CC(N)(/C=C/c1ccccc1)C(=O)O (stereo unspecified)
TGI (ACHN renal): > 100 µM | TGI (HCT-116 colon): > 100 µM | TGI (K-562 leukemia): > 100 µM | TGI (NCI-H226 lung): > 100 µM | TGI (OVCAR-3 ovarian): > 100 µM | TGI (RPMI-8226 leukemia): > 100 µM | TGI (SK-MEL-5 melanoma): > 100 µM | TGI (UACC-257 melanoma): > 100 µM
